Reference: US20030175678A1, “Methods for identifying genes regulating desired cell phenotypes” (priority 2001, published 2003)

Columns and labels:
PAL, CHS, and F3-OH = assay: Quantitative RT-PCR of PAL, CHS and F3-OH transcripts in C. dejecta cells; assay type: cell-based, Crassula dejecta; conditions: after 48 hours
Experimental: Differential induction of mRNA transcripts associated with the synthesis of catechin derivatives in the C. barkleyi suspension culture (as described in Example 2) and the C. dejecta suspension culture (as described in Example 3) were performed in 250 mL conical flasks containing 100 mL of a secondary metabolite production medium B49 (Gamborg's B5, 5% sucrose, no hormones), inoculated with 16 mL of a 14 day old suspension culture (C. barkleyi) or 40 mL of a 21 day old suspension culture (C. dejecta). The cultures were incubated under low light conditions (approximately 30 lux) at 25° C.
Induction of mRNA usually occurs within 48 hours of receipt of an inducing signal. Accordingly, samples were taken at intervals of 2, 4, 6, 10, 15, 24, and 48 hours following the above treatments. Samples, sufficient to give at least 1 mL packed cell volume, were centrifuged for five minutes at 4000 rpm and the supernatant removed. […]
This mixture was incubated at 42° C. for 50 min then denatured at 70° C. for 15 min and stored at −20° C., after a thirty-fold dilution with distilled water. An aliquot of this reaction was then used to quantify the relative abundance of each of the three genes (PAL, CHS, F3-OH) to the invariant one (TBP), using a real time quantification PCR machine (Perkin Elmer 7700) and the previously described oligonucleotides (shown in FIG. 7) in the following conditions: […]

[1] = test system: C. dejecta suspension culture; assay: Differential induction of catechin accumulation in Crassula dejecta suspension culture; assay type: cell-based
Experimental: Differential induction of catechin derivatives in the C. dejecta suspension culture was performed in 250 mL conical flasks containing 100 mL of B105 growth medium or 100 mL of a secondary metabolite production medium B49 (Gamborg's B5, with 5% sucrose, and no hormones), inoculated with 40 mL of 21 day old suspension culture. The cultures were incubated under low light conditions (approximately 30 lux) at 25° C. Cultures were treated using one of each of the following protocols:
(1) B105 growth medium (no additions) used as is;
(3) Filter-sterilized aqueous zeatin (10 μM) was added at day 7 to a culture grown on B105 medium;
(4) B49 production medium (no additions) used as is;
(6) Filter-sterilized clofibrate (0.5 mM final concentration) was added at day 7 to a culture grown on B49 medium. Ten milliliters of culture samples were taken at regular intervals for 17 days following the day of subculture to B105 or B49 medium. All culture samples were centrifuged for five minutes at 4000 rpm, and the cell residue was freeze-dried. Extraction, sample preparation, and HPLC analysis were performed as described in Example 1.

[2] = test system: S. tectorum suspension culture; assay: Catechin profiling in Sempervivum tectorum suspension culture; assay type: cell-based; conditions: B49 medium, added on day 7
Experimental: Catechin derivative profiles in the S. tectorum suspension culture were obtained from incubations in 250 mL conical flasks containing either 100 mL of B88 growth medium or 100 mL of a secondary metabolite production medium B49 (Gamborg's B5 modified to contain 5% sucrose and no hormones) inoculated with 40 mL of 21 day old suspension culture. The cultures were incubated under low light conditions (approximately 30 lux) at 25° C.
Ten milliliters of culture samples were taken at regular intervals for 16 days following the day of subculture to B88 or B49 medium. All culture samples were centrifuged for five minutes at 4000 rpm and the supernatant liquid was removed and frozen. The cell residue was freeze-dried. Extraction, sample preparation, and HPLC analysis were performed as described in Example 1.

CC/C=C\CC1C(=O)CCC1CC(=O)OC (stereo not shown) [methyl jasmonate]
induction of PAL, CHS, and F3-OH genes (PAL, CHS, and F3-OH): at least 6 fold
induction of EGCG and other catechins ([1]; cultures grown on both B105 and B49 media, added at day 7): induced EGCG and other catechins
accumulation of EGCG ([1]; on B49, methyl jasmonate added at day 7): ten-fold
catechin level [2]: no further increase in catechin level
